Test results reported in patent US10167262B2, “Herbicidal substituted 3-arylpyrazoles” (FMC CORPORATION, priority 2014, dated 2019).

Tests used:
Type in all cases: in vivo
[1] = test system: giant foxtail (Setaria faberii); assay: Test A pre-/postemergence greenhouse herbicide test, visual injury rating 0-100; conditions: 1000 g ai/ha
Method in brief: (§1)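 Postemergence treatment targeted seedlings 2 to 10 cm high with one to two leaves, while preemergence treatment was a directed spray onto freshly planted loam/sand soil. Injury was scored visually about 10 days later.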

corn (Zea mays) = assay: as above; conditions: 1000 g ai/ha
Method in brief: as §1

[2] = test system: pigweed (Amaranthus retroflexus); assay: as above; conditions: 1000 g ai/ha
Method in brief: as §1

[3] = test system: large (Lg) crabgrass (Digitaria sanguinalis); assay: as above; conditions: 1000 g ai/ha
Method in brief: as §1

[4] = test system: wheat (Triticum aestivum); assay: as above; conditions: 1000 g ai/ha
Method in brief: as §1

[5] = test system: velvetleaf (Abutilon theophrasti); assay: as above; conditions: 1000 g ai/ha
Method in brief: as §1

[6] = test system: barnyardgrass (Echinochloa crus-galli); assay: as above; conditions: 1000 g ai/ha
Method in brief: as §1

[7] = test system: morningglory (Ipomoea spp.); assay: as above; conditions: 1000 g ai/ha
Method in brief: as §1

kochia (Kochia scoparia) = assay: Test C postemergence greenhouse test, plant response rating 0-100; conditions: for Plant response rating, Kochia: scale 0 to 100
Method in brief: (§2)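 Response is a visual 0–100 control rating taken 13 to 15 days post-treatment, with a dash marking no result. Plants ranged 2 to 18 cm when treated postemergence.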

[8] = test system: chickweed (common chickweed, Stellaria media); assay: as above; conditions: for Plant response rating, Chickweed: scale 0 to 100
Method in brief: as §2

wild oat (Avena fatua) = assay: as above; conditions: for Plant response rating, Oat, Wild: scale 0 to 100
Method in brief: as §2

[9] = test system: ragweed (common ragweed, Ambrosia elatior); assay: Test C pre-/postemergence greenhouse test, plant response rating 0-100; conditions: Postemergence; for Plant response rating, Ragweed: scale 0 to 100;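 on all read-outs here: 0 is no effect and 100 is complete control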
Method in brief: (§3)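 Formulated in solvent with surfactant, test chemicals were sprayed on seeded loam/sand pots and, concurrently, on young plants 2–18 cm tall. Evaluation: visual, versus controls, day 13–15.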

[10] = test system: blackgrass (Alopecurus myosuroides); assay: as above; conditions: Postemergence; for Plant response rating, Blackgrass: scale 0 to 100;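 on all read-outs here: 0 is no effect and 100 is complete control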
Method in brief: as §3

What does the source list for `Fc1ccc(NN=C(c2ccccc2)c2c[nH]nc2-c2cc(Cl)cc(Cl)c2)cc1` [Compound 35]?
Plant response rating (0 to 100 scale), Foxtail, Giant ([1]; Postemergence): 0; Plant response rating (0 to 100 scale), Foxtail, Giant ([1]; Preemergence): 0; Plant response rating (0 to 100 scale), Corn (corn (Zea mays); Postemergence): 0; Plant response rating (0 to 100 scale), Corn (corn (Zea mays); Preemergence): 0; Plant response rating (0 to 100 scale), Pigweed ([2]; Postemergence): 90; Plant response rating (0 to 100 scale), Pigweed ([2]; Preemergence): 100; Plant response rating (0 to 100 scale), Crabgrass, Large ([3]; Postemergence): 0; Plant response rating (0 to 100 scale), Crabgrass, Large ([3]; Preemergence): 0; Plant response rating (0 to 100 scale), Wheat ([4]; Postemergence): 0; Plant response rating (0 to 100 scale), Wheat ([4]; Preemergence): 0; Plant response rating (0 to 100 scale), Velvetleaf ([5]; Postemergence): 90; Plant response rating (0 to 100 scale), Velvetleaf ([5]; Preemergence): 100; Plant response rating (0 to 100 scale), Barnyardgrass ([6]; Postemergence): 0; Plant response rating (0 to 100 scale), Barnyardgrass ([6]; Preemergence): 0; Plant response rating (0 to 100 scale), Morningglory ([7]; Postemergence): 0; Plant response rating (0 to 100 scale), Morningglory ([7]; Preemergence): 0; Plant response rating (0 to 100), Kochia (kochia (Kochia scoparia); 62 g ai/ha): 50; Plant response rating (0 to 100), Kochia (kochia (Kochia scoparia); 125 g ai/ha): 55; Plant response rating, Kochia (kochia (Kochia scoparia); 250 g ai/ha): 90; Plant response rating, Kochia (kochia (Kochia scoparia); 500 g ai/ha): 95; Plant response rating (0 to 100), Chickweed ([8]; 62 g ai/ha): 98; Plant response rating (0 to 100), Chickweed ([8]; 125 g ai/ha): 100; Plant response rating, Chickweed ([8]; 250 g ai/ha): 100; Plant response rating, Chickweed ([8]; 500 g ai/ha): 100; Plant response rating (0 to 100), Oat, Wild (wild oat (Avena fatua); 62 g ai/ha): 0; Plant response rating (0 to 100), Oat, Wild (wild oat (Avena fatua); 125 g ai/ha): 0; Plant response rating, Oat, Wild (wild oat (Avena fatua); 250 g ai/ha): 0; Plant response rating, Oat, Wild (wild oat (Avena fatua); 500 g ai/ha): 0; Plant response rating (0 to 100), Ragweed ([9]; 62 g ai/ha): 15; Plant response rating (0 to 100), Ragweed ([9]; 125 g ai/ha): 40; Plant response rating, Ragweed ([9]; 250 g ai/ha): 50; Plant response rating, Ragweed ([9]; 500 g ai/ha): 55; Plant response rating (0 to 100), Blackgrass ([10]; 62 g ai/ha): 0; Plant response rating (0 to 100), Blackgrass ([10]; 125 g ai/ha): 0; Plant response rating, Blackgrass ([10]; 250 g ai/ha): 0; Plant response rating, Blackgrass ([10]; 500 g ai/ha): 0
